According to the supplement of paper PMC10307832:

How the values were obtained:
Assay in all cases: relative viability (nuclei count vs DMSO), 5 days (fraction); higher = more cells survive
[1] = compound: COc1cc2c(Oc3ccc4[nH]c(C)cc4c3F)ncnc2cc1OCCCN1CCCC1 [Cediranib] + CC(=O)Nc1cccc(-n2c(=O)n(C3CC3)c(=O)c3c(Nc4ccc(I)cc4F)n(C)c(=O)c(C)c32)c1 [Trametinib] (partner 0.02 µM)
Summary of the method: (§1)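 Relative viability was taken as the ratio of nuclei in treated wells to nuclei in vehicle wells. Lung cancer cell lines in 1536-well plates received compounds by pin tool one day after seeding, either one drug alone or a fixed anchor-drug dose plus five library-drug doses (not always all listed) in √10 steps. Nuclei were counted on 4× images after 5 days of treatment, and values are medians of duplicate plates.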

[2] = compound: Nc1ncn([C@H]2C[C@H](O)[C@@H](CO)O2)c(=O)n1 [Decitabine] + CC1(C)CCC(c2ccc(Cl)cc2)=C(CN2CCN(c3ccc(C(=O)NS(=O)(=O)c4ccc(N[C@H](CCN5CCOCC5)CSc5ccccc5)c(S(=O)(=O)C(F)(F)F)c4)cc3)CC2)C1 [Navitoclax] (partner 0.5 µM)
Summary of the method: as §1

[3] = compound: O=C(C[C@H]1NCCC[C@@H]1O)Cn1cnc2cc(Br)c(Cl)cc2c1=O (racemic) [Halofuginone] + C[C@@H](Oc1cc(-c2cnn(C3CCNCC3)c2)cnc1N)c1c(Cl)ccc(F)c1Cl [Crizotinib] (partner 1 µM)
Summary of the method: as §1

[4] = compound: O=C(C[C@H]1NCCC[C@@H]1O)Cn1cnc2cc(Br)c(Cl)cc2c1=O (racemic) [Halofuginone] + Cc1cc(Nc2cc(N3CCN(C)CC3)nc(Sc3ccc(NC(=O)C4CC4)cc3)n2)n[nH]1 [Tozasertib] (partner 0.1 µM)
Summary of the method: as §1

Cell Line	relative viability ([1]; first compound 0.04 µM)	relative viability ([1]; first compound 0.1265 µM)	relative viability ([1]; first compound 0.4 µM)	relative viability ([1]; first compound 1.265 µM)	relative viability ([1]; first compound 4 µM)	relative viability ([2]; first compound 0.04 µM)	relative viability ([2]; first compound 0.1265 µM)	relative viability ([2]; first compound 0.4 µM)	relative viability ([2]; first compound 1.265 µM)	relative viability ([2]; first compound 4 µM)	relative viability ([3]; first compound 0.001 µM)	relative viability ([3]; first compound 0.003162 µM)	relative viability ([3]; first compound 0.01 µM)	relative viability ([3]; first compound 0.03162 µM)	relative viability ([3]; first compound 0.1 µM)	relative viability ([4]; first compound 0.001 µM)	relative viability ([4]; first compound 0.003162 µM)	relative viability ([4]; first compound 0.01 µM)	relative viability ([4]; first compound 0.03162 µM)	relative viability ([4]; first compound 0.1 µM)
LK-2	0.889	0.573	0.668	0.742	0.643	0.739	0.881	0.664	0.358	0.332	0.198	0.242	0.198	0.229	0.208	0.163	0.164	0.184	0.16	0.181
LOU-NH91	0.841	0.808	0.796	0.751	0.786	0.372	0.645	0.503	0.458	0.525	0.782	0.718	0.714	0.964	0.688	0.7	0.791	0.642	0.705	0.576
LU99A	0.553		0.544	0.515	0.568	0.745	0.711	0.771	0.53	0.502	0.632	0.556	0.558	0.499	0.41	0.277	0.295	0.271	0.296	0.36
LXF-289	0.671		0.676	0.651	0.632	0.65	0.53	0.44	0.308	0.29	0.829	0.737	0.746	0.825	0.653	0.196	0.199	0.245	0.173	0.178
NCI-H23	0.483	0.426	0.419	0.325	0.424	0.558	0.45	0.305	0.21	0.224	0.582	0.724	0.486	0.609	0.218	0.387	0.399	0.383	0.387	0.265
NCI-H322M	0.475	0.489	0.526	0.528	0.568	0.841	0.892	0.777	0.505	0.509	0.982	0.911	0.906	1.01	0.77	0.461	0.468	0.462	0.467	0.258
NCI-H441	0.631	0.504	0.408	0.483	0.399	0.258	0.293	0.274	0.259	0.223	0.967	1.1	0.677	0.694	0.311	0.737	0.792	0.568	0.57	0.256
NCI-H460	0.111	0.156	0.138	0.153	0.214	0.974	1.03	0.612	0.292	0.198	1.05	1.06	0.866	0.409	0.0383	0.611	0.572	0.438	0.444	0.19
NCI-H520	0.783	0.435	0.54	0.483	0.521	0.941	0.804	0.615	0.819	0.467	0.764	0.808	0.749	0.693	0.316	0.457	0.457	0.461	0.467	0.322
NCI-H596	0.767	0.778	0.73	0.771	0.918	0.912	0.868	0.638	0.688	0.587	1.23	1.05	0.941	1.01	0.666	1.04	0.871	0.953	0.543	0.303
NCI-H647	0.48	0.428	0.441	0.515	0.491	0.796	0.836	0.355	0.219	0.178	0.942	1.13	0.978	0.834	0.0795	0.441	0.324	0.267	0.171	0.0868
NCI-H727	0.374	0.376	0.358	0.374	0.384	0.302	0.361	0.343	0.272	0.292	0.689	1.04	0.771	0.574	0.234	0.706	0.778	0.578	0.615	0.33
NCI-H838	0.508	0.494	0.491	0.514	0.705	0.734	0.512	0.321	0.366	0.309	0.904	0.799	0.815	0.718	0.134	0.257	0.315	0.256	0.214	0.212
NCI-H1355	0.401	0.432	0.417	0.439	0.464	0.695	0.583	0.471	0.248	0.913	1.04	1.04	1.08	1.08	0.921	0.667	0.533	0.538	0.527	0.488
NCI-H1437	0.521	0.449	0.509	0.625	0.621	0.768	0.676	0.371	0.271	0.27	0.935	0.918	0.807	0.73	0.841	0.407	0.387	0.425	0.393	0.399
NCI-H1650	0.574	0.606	0.541	0.54	0.393	0.546	0.482	0.434	0.329	0.295	1.05	1.05	0.951	0.823	0.59	0.559	0.384	0.357	0.29	0.192

Cell Line	relative viability ([1]; first compound 0.04 µM)	relative viability ([1]; first compound 0.1265 µM)	relative viability ([1]; first compound 0.4 µM)	relative viability ([1]; first compound 1.265 µM)	relative viability ([1]; first compound 4 µM)	relative viability ([2]; first compound 0.04 µM)	relative viability ([2]; first compound 0.1265 µM)	relative viability ([2]; first compound 0.4 µM)	relative viability ([2]; first compound 1.265 µM)	relative viability ([2]; first compound 4 µM)	relative viability ([3]; first compound 0.001 µM)	relative viability ([3]; first compound 0.003162 µM)	relative viability ([3]; first compound 0.01 µM)	relative viability ([3]; first compound 0.03162 µM)	relative viability ([3]; first compound 0.1 µM)	relative viability ([4]; first compound 0.001 µM)	relative viability ([4]; first compound 0.003162 µM)	relative viability ([4]; first compound 0.01 µM)	relative viability ([4]; first compound 0.03162 µM)	relative viability ([4]; first compound 0.1 µM)
NCI-H1651	0.826	0.874	0.846	0.855	0.821	0.893	1.03	0.958	0.684	0.876	0.922	0.899	0.88	0.848	0.798	1.03	0.773	0.702	0.471	0.352
NCI-H1666	0.87	0.655	0.838	0.844	0.877	0.85	0.776	0.687	0.465	0.487	1.02	1.02	0.948	0.913	0.582	0.656	0.644	0.56	0.596	0.704
NCI-H1734	0.658	0.663	0.71	0.633	0.683	0.583	0.57	0.424	0.268	0.246	0.738	0.718	0.67	0.659	0.277	0.226	0.267	0.278	0.291	0.251
NCI-H1755	0.8	0.804	0.709	0.81	0.783	0.912	0.887	0.696	0.521	0.302	0.916	0.884	0.806	0.869	0.348	0.591	0.569	0.567	0.591	0.461
NCI-H1915	0.318	0.308	0.3	0.307	0.272	0.338	0.253	0.223	0.184	0.188	0.897	0.954	0.813	0.894	0.73	0.463	0.462	0.416	0.448	0.299
NCI-H1944	0.402	0.377	0.409	0.4	0.474	0.689	0.669	0.564	0.423	0.365	1.1	1.19	1.11	1.05	0.803	0.264	0.282	0.243	0.237	0.196
NCI-H1975	0.377	0.388	0.338	0.373	0.337	0.431	0.317	0.291	0.256	0.256	1.12	0.91	1.01	0.628	0.184	1.04	0.848	0.737	0.354	0.13
NCI-H1993		0.48	0.56	0.504	0.641	0.917	0.993	0.906	0.732	0.87	1.05	0.921	0.95	0.89	0.588	0.56	0.52	0.565	0.545	0.532
NCI-H2009	0.288	0.335	0.237	0.213	0.276	0.945	0.722	0.568	0.416	0.263	1.15	1.09	1.06	0.923	0.668	0.897	0.754	0.746	0.659	0.366
NCI-H2023	0.592	0.585	0.565	0.591	0.905	0.609	0.517	0.379	0.259	0.198	0.847	0.649	0.701	0.493	0.0689	0.46	0.294	0.399	0.178	0.134
NCI-H2085	0.571	0.523	0.475	0.49	0.526	0.882	0.736	0.67	0.497	0.467	0.994	0.82	0.776	0.831	0.52	0.959	0.877	0.729	0.847	0.716
NCI-H2087	0.221	0.29	0.179	0.183	0.288	0.635	0.562	0.458	0.369	0.357	0.738	0.902	0.77	0.851	0.851	0.28	0.322	0.251	0.23	0.114
NCI-H2126	0.575	0.551	0.551	0.578	0.531	0.777	0.787	0.548	0.491	0.574	1.02	1.03	0.998	1.02	0.987	0.918	0.845	0.859	0.793	0.62
NCI-H2170	0.993		0.935	0.81	0.986	0.402	0.338	0.382	0.238	0.204	1.27	1.34	1.21	1.21	1	0.731	0.678	0.812	0.679	0.728
NCI-H2228	0.46	0.376	0.398	0.565	0.505	0.667	0.525	0.264	0.337	0.21	0.45	0.658	0.411	0.218	0.177	0.321	0.324	0.19	0.133	0.0815
